From patent US20230099344A1, “COMPOUNDS AND METHODS FOR THE TARGETED DEGRADATION OF IRAK-4” (Arvinas Operations, Inc., priority 2021, published 2023)

Target: T1, IRAK-4 (Homo sapiens, UniProt Q9NWZ3)
T1 sequence (Q9NWZ3 1-460): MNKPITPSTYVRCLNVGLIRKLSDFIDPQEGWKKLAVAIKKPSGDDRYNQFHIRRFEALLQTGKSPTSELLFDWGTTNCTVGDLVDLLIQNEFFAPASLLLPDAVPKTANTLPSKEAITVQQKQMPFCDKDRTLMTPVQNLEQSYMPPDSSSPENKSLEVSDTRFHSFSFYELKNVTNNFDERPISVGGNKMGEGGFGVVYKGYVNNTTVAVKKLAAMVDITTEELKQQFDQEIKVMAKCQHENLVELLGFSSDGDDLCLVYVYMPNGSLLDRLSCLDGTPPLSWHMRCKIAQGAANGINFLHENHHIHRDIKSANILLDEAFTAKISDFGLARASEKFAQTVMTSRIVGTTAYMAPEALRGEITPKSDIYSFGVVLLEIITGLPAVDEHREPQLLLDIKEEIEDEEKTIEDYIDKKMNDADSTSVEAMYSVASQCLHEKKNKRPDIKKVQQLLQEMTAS
Assay: IRAK-4 ELISA, OCI-Ly10 degradation
Format: cell-based
Set-up: endogenous in cells
Conditions: treated overnight; for Dmax: OCI-Ly10, OCI-Ly10 cells; for DC50: OCI-Ly10 cells
Description: Reagents: Human IRAK-4 Matched Antibody Pair Kit (Abcam ab218182) and ELISA Accessory Pack (Abcam ab210905).
Cell Treatment and Lysis:
1. OCI-Ly10: 200,000 cells are seeded at 1×10^6/ml in 96-well U-bottom plates 200 ul per well, treated with compound the same day. Incubate overnight. 2. PBMC: 800,000 cells are seeded at 2×10^6/ml in 96-well U-bottom deep-well plates, 400 ul per well, treated with compound the same day. Incubate overnight.
Cell lysate is collected and analyzed by ELISA for IRAK-4 levels.

| SMILES | Dmax [%] | DC50 [nM] |
| --- | --- | --- |
| CC(C)Oc1cc2c(cc1NC(=O)c1cnn3cccnc13)CN(C1CCN(CCc3ccc4c(c3)C(=O)N(C3CCC(=O)NC3=O)C4=O)CC1)C2=O (stereo not shown) [Example 7] | 80 to 90 | 10 to 50 |
| CC(C)Oc1cc2c(cc1NC(=O)c1cnn3cccnc13)CN(C1CCN(CCc3ccc4c(c3)CN(C3CCC(=O)NC3=O)C4=O)CC1)C2=O (stereo not shown) [Example 8] | ≥ 90 | < 10 |
| CC(C)Oc1cc2c(cc1NC(=O)c1cnn3cccnc13)CN(C1CCN(Cc3ccc4c(c3)CN(C3CCC(=O)NC3=O)C4=O)CC1)C2=O (stereo not shown) [Example 10] | – | ≥ 100 |
| CC(C)Oc1cc2c(cc1NC(=O)c1cnn3cccnc13)CN(CC1CN(CCc3ccc4c(c3)CN(C3CCC(=O)NC3=O)C4=O)C1)C2=O (stereo not shown) [Example 26] | – | ≥ 100 |
| O=C1CCC(N2C(=O)c3ccc(N4CCC(CN5CCC(N6Cc7cc(NC(=O)c8cnn9cc(Cl)cnc89)c(N8CCOCC8)cc7C6=O)CC5)CC4)cc3C2=O)C(=O)N1 (stereo not shown) [Example 33] | 80 to 90 | 10 to 50 |
| O=C1CCC(N2Cc3cc(N4CC(CN5CCC(N6Cc7cc(NC(=O)c8cnn9cccnc89)c(N8CCOCC8)cc7C6=O)CC5)C4)ccc3C2=O)C(=O)N1 (stereo not shown) [Example 34] | – | ≥ 100 |
| O=C1CCC(N2Cc3cc(N4CC(CN5CCC(N6Cc7cc(NC(=O)c8cnn9cccnc89)c(N8CCC(N9CCC9)CC8)cc7C6=O)CC5)C4)ccc3C2=O)C(=O)N1 (stereo not shown) [Example 35] | ≥ 90 | 10 to 50 |
| O=C1CCC(N2C(=O)c3ccc(CCN4CCC(N5Cc6cc(NC(=O)c7cnn8cccnc78)c(N7CCOCC7)cc6C5=O)CC4)cc3C2=O)C(=O)N1 (stereo not shown) [Example 37] | – | ≥ 100 |
| CC(C)Oc1cc2c(cc1NC(=O)c1cnn3cccnc13)CN(C1CCN(C3CN(c4cc5c(cc4F)C(=O)N(C4CCC(=O)NC4=O)C5=O)C3)CC1)C2=O (stereo not shown) [Example 63] | ≥ 90 | 10 to 50 |
| O=C1CCC(N2Cc3cc(N4CCC(CN5CCC(n6cc7cc(NC(=O)c8cnn9cccnc89)c(OCC8CC8)cc7n6)CC5)CC4)ccc3C2=O)C(=O)N1 (stereo not shown) [Example 118, N-(6-(cyclopropylmethoxy)-2-(1-((1-(2-(2,6-dioxopiperidin-3-yl)-1-oxoisoindolin-5-yl)piperidin-4-yl)methyl)piperidin-4-yl)-2H-indazol-5-yl)pyrazolo[1,5-a]pyrimidine-3-carboxamide] | ≥ 90 | < 10 |
| O=C1CCC(N2C(=O)c3ccc(OCCOCCN4CCC(n5cc6cc(NC(=O)c7cnn8cc(Cl)cnc78)c(OCC7CC7)cc6n5)CC4)cc3C2=O)C(=O)N1 (stereo not shown) [Example 120] | ≥ 90 | 10 to 50 |
| O=C1CCC(N2C(=O)c3ccc(OCCOCCN4CCC(n5cc6cc(NC(=O)c7cnn8cccnc78)c(OCC7CC7)cc6n5)CC4)cc3C2=O)C(=O)N1 (stereo not shown) [Example 121] | ≥ 90 | 10 to 50 |
| O=C1CCC(N2C(=O)c3ccc(CN4CCC(n5cc6cc(NC(=O)c7cnn8cccnc78)c(OCC7CC7)cc6n5)CC4)cc3C2=O)C(=O)N1 (stereo not shown) [Example 123] | – | ≥ 100 |
| O=C1CCC(N2C(=O)c3ccc(OCCN4CCC(n5cc6cc(NC(=O)c7cnn8cccnc78)c(OCC7CC7)cc6n5)CC4)cc3C2=O)C(=O)N1 (stereo not shown) [Example 125] | 70 to 80 | 10 to 50 |
| O=C1CCC(N2C(=O)c3ccc(CCN4CCC(n5cc6cc(NC(=O)c7cnn8cccnc78)c(OCC7CC7)cc6n5)CC4)cc3C2=O)C(=O)N1 (stereo not shown) [Example 127] | ≥ 90 | 10 to 50 |
| O=C1CCC(N2Cc3cc(N4CCC(CN5CCC(n6cc7cc(NC(=O)c8cnn9cc(Cl)cnc89)c(OCC8CC8)cc7n6)CC5)CC4)ccc3C2=O)C(=O)N1 (stereo not shown) [Example 129] | 80 to 90 | < 10 |
| Cc1cnc2c(C(=O)Nc3cc4cn(C5CCN(CC6CCN(c7ccc8c(c7)C(=O)N(C7CCC(=O)NC7=O)C8=O)CC6)CC5)nc4cc3OCC3CC3)cnn2c1 (stereo not shown) [Example 130] | ≥ 90 | 50 to 100 |
| O=C1CCC(N2Cc3cc(N4CCC(CN5CCC(n6cc7cc(NC(=O)c8cnn9cccnc89)c(C8CC8)cc7n6)CC5)CC4)ccc3C2=O)C(=O)N1 (stereo not shown) [Example 135] | 80 to 90 | < 10 |
| COc1cc2nn(C3CCN(CC4CCN(c5ccc6c(c5)C(=O)N(C5CCC(=O)NC5=O)C6=O)CC4)CC3)cc2cc1NC(=O)c1cnn2cc(C)cnc12 (stereo not shown) [Example 140] | 80 to 90 | 10 to 50 |
| COc1cc2nn(C3CCN(CCc4ccc5c(c4)C(=O)N(C4CCC(=O)NC4=O)C5=O)CC3)cc2cc1NC(=O)c1cnn2cccnc12 (stereo not shown) [Example 144] | – | ≥ 100 |
| COc1cc2nn([C@H]3CCN(CC4CCN(c5ccc6c(c5)CN(C5CCC(=O)NC5=O)C6=O)CC4)C[C@@H]3F)cc2cc1NC(=O)c1cnn2cccnc12 (stereo partly shown) [Example 145] | ≥ 90 | 10 to 50 |
| COc1cc2nn(C3CN(CC4CCN(c5ccc6c(c5)C(=O)N(C5CCC(=O)NC5=O)C6=O)CC4)C3)cc2cc1NC(=O)c1cnn2cccnc12 (stereo not shown) [Example 146] | – | ≥ 100 |
| O=C1CCC(N2Cc3cc(N4CCN(CCN5CCC(n6cc7cc(NC(=O)c8cnn9cccnc89)c(OCC8CC8)cc7n6)CC5)CC4)ccc3C2=O)C(=O)N1 (stereo not shown) [Example 160, N-(6-(cyclopropylmethoxy)-2-(1-(2-(4-(2-(2,6-dioxopiperidin-3-yl)-1-oxoisoindolin-5-yl)piperazin-1-yl)ethyl)piperidin-4-yl)-2H-indazol-5-yl)pyrazolo[1,5-a]pyrimidine-3-carboxamide] | ≥ 90 | < 10 |
| O=C1CCC(N2C(=O)c3ccc(N4CC(CN5CCC(n6cc7cc(NC(=O)c8cnn9cccnc89)c(OCC8CC8)cc7n6)CC5)C4)cc3C2=O)C(=O)N1 (stereo not shown) [Example 162] | ≥ 90 | < 10 |
| O=C1CCC(N2C(=O)c3ccc(N4CC(N5CCC(n6cc7cc(NC(=O)c8cnn9cccnc89)c(OCC8CC8)cc7n6)CC5)C4)cc3C2=O)C(=O)N1 (stereo not shown) [Example 163] | ≥ 90 | 10 to 50 |
| O=C1CCC(N2C(=O)c3ccc(N4CC(CN5CCC(n6cc7cc(CC(=O)c8cnn9cc(Cl)cnc89)c(OCC8CC8)cc7n6)CC5)C4)cc3C2=O)C(=O)N1 (stereo not shown) [Example 164] | ≥ 90 | 10 to 50 |
| CC1(CN2CCC(n3cc4cc(NC(=O)c5cnn6cccnc56)c(OCC5CC5)cc4n3)CC2)CN(c2ccc3c(c2)C(=O)N(C2CCC(=O)NC2=O)C3=O)C1 (stereo not shown) [Example 168] | ≥ 90 | 10 to 50 |
| O=C1CCC(N2C(=O)c3ccc(N4CCC([C@H](F)Cn5cc6cc(NC(=O)c7cnn8cccnc78)c(OCC7CC7)cc6n5)CC4)cc3C2=O)C(=O)N1 (stereo partly shown) [Example 171] | 70 to 80 | 50 to 100 |
| O=C1CCC(N2C(=O)c3ccc(N4CC(COC[C@H](F)Cn5cc6cc(NC(=O)c7cnn8cccnc78)c(OCC7CC7)cc6n5)C4)cc3C2=O)C(=O)N1 (stereo partly shown) [Example 172] | 80 to 90 | ≥ 100 |

Next, values leading:

| Dmax [%] | DC50 [nM] | SMILES |
| --- | --- | --- |
| 80 to 90 | ≥ 100 | O=C1CCC(N2C(=O)c3ccc(C#CCN4CCC(n5cc6cc(NC(=O)c7cnn8cccnc78)c(OCC7CC7)cc6n5)CC4)cc3C2=O)C(=O)N1 (stereo not shown) [Example 178] |
| < 70 | ≥ 100 | O=C1CCC(N2Cc3cc(C#CCN4CCC(n5cc6cc(NC(=O)c7cnn8cccnc78)c(OCC7CC7)cc6n5)CC4)ccc3C2=O)C(=O)N1 (stereo not shown) [Example 179] |
| ≥ 90 | 10 to 50 | O=C1CCC(N2C(=O)c3ccc(N4CCN(CCOC[C@H](F)Cn5cc6cc(NC(=O)c7cnn8cccnc78)c(OCC7CC7)cc6n5)CC4)cc3C2=O)C(=O)N1 (stereo partly shown) [Example 180] |
| 80 to 90 | ≥ 100 | O=C1CCC(N2C(=O)c3ccc(N4CCC(COC[C@H](F)Cn5cc6cc(NC(=O)c7cnn8cccnc78)c(OCC7CC7)cc6n5)CC4)cc3C2=O)C(=O)N1 (stereo partly shown) [Example 181] |
| ≥ 90 | < 10 | COc1cc2nn(C3CCN(CC4CCN(c5ccc6c(c5)C(=O)N(C5CCC(=O)NC5=O)C6=O)CC4)CC3)cc2cc1NC(=O)c1cnn2cccnc12 (stereo not shown) [Example 201] |
| ≥ 90 | < 10 | COc1cc2nn(C3CCN(CC4CN(c5ccc6c(c5)C(=O)N(C5CCC(=O)NC5=O)C6=O)C4)CC3)cc2cc1NC(=O)c1cnn2cc(Cl)cnc12 (stereo not shown) [Example 203] |
| < 70 | 50 to 100 | COc1cc2nn(C3CCN(CC#Cc4ccc5c(c4)C(=O)N(C4CCC(=O)NC4=O)C5=O)CC3)cc2cc1NC(=O)c1cnn2cccnc12 (stereo not shown) [Example 204] |
| 80 to 90 | < 10 | COc1cc2nn(C3CCN(C4CN(c5ccc6c(c5)C(=O)N(C5CCC(=O)NC5=O)C6=O)C4)CC3)cc2cc1NC(=O)c1cnn2cccnc12 (stereo not shown) [Example 205] |
| ≥ 90 | < 10 | COc1cc2nn(C3CCN(C(C)(C)C4CN(c5ccc6c(c5)C(=O)N(C5CCC(=O)NC5=O)C6=O)C4)CC3)cc2cc1NC(=O)c1cnn2cccnc12 (stereo not shown) [Example 206] |
| ≥ 90 | 10 to 50 | COc1cc2nn([C@H]3CCN(CC4CCN(c5ccc6c(c5)C(=O)N(C5CCC(=O)NC5=O)C6=O)CC4)C[C@@H]3F)cc2cc1NC(=O)c1cnn2cccnc12 (stereo partly shown) [Example 208] |
| – | ≥ 100 | COc1cc2nn(C3CCN(CC4CN(c5ccc6c(c5)C(=O)N(C5CCC(=O)NC5=O)C6=O)C4)C3)cc2cc1NC(=O)c1cnn2cccnc12 (stereo not shown) [Example 209] |
| – | ≥ 100 | COc1cc2nn(C3CCN(CC4CCN(c5ccc6c(c5)C(=O)N(C5CCC(=O)NC5=O)C6=O)CC4)C3)cc2cc1NC(=O)c1cnn2cccnc12 (stereo not shown) [Example 210] |
